In patent US11447466B2, “Substituted indole compounds useful as inhibitors of TLR7/8/9” (BRISTOL-MYERS SQUIBB COMPANY, priority 2017, dated 2022):

Assays:
Type in all cases: cell-based
human TLR7 = biological target: T1, human TLR7 (Homo sapiens, UniProt Q9NYK1); assay: TLR7 inhibition reporter assay (HEK-Blue SEAP reporter, gardiquimod stimulation); details: HEK-Blue cells overexpressing human TLR7, SEAP reporter, gardiquimod 7.5 μM, 22 hour incubation
T1 construct: host or cells: HEK-Blue cells
T1 sequence (Q9NYK1 27-1049): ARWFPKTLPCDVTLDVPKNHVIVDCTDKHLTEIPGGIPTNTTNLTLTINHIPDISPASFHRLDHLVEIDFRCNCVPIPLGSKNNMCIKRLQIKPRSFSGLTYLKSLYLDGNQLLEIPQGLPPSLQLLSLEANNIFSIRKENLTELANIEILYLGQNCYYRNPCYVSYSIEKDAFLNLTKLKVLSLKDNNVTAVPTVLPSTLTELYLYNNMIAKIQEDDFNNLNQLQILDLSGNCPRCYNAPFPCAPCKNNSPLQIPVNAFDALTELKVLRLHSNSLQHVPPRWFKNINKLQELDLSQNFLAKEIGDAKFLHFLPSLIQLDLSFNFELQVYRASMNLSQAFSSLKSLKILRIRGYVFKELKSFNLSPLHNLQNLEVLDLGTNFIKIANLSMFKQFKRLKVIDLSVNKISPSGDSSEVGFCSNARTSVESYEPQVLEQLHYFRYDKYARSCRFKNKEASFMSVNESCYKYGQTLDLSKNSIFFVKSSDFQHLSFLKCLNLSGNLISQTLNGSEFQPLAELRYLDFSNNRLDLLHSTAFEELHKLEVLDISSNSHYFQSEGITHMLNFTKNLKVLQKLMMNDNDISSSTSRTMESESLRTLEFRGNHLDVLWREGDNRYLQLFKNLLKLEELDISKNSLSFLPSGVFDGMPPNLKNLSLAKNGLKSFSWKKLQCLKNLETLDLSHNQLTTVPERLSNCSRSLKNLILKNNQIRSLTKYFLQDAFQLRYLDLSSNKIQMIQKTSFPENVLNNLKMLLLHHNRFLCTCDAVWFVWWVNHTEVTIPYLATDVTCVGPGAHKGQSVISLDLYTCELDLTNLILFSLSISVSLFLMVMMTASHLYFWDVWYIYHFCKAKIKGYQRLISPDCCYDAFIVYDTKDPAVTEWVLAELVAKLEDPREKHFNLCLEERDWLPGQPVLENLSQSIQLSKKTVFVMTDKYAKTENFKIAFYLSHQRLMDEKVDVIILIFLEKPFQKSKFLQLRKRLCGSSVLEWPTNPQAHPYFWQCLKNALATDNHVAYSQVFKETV
Method in brief: (§1)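 Dose–response from 0.05 nM to 50 μM was run in HEK-Blue human TLR7, TLR8 and TLR9 reporter cells. After 30 min at room temperature with compound, ligand was added (TLR7 gardiquimod 7.5 μM; TLR8 R848 15.9 μM; TLR9 ODN2006 5 nM) and SEAP measured next day, at 22 h.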

human TLR8 = biological target: T2, human TLR8 (Homo sapiens, UniProt Q9NR97); assay: TLR8 inhibition reporter assay (HEK-Blue SEAP reporter, R848 stimulation); details: HEK-Blue cells overexpressing human TLR8, SEAP reporter, R848 15.9 μM, 22 hour incubation
T2 construct: host or cells: HEK-Blue cells
T2 sequence (Q9NR97 27-1041): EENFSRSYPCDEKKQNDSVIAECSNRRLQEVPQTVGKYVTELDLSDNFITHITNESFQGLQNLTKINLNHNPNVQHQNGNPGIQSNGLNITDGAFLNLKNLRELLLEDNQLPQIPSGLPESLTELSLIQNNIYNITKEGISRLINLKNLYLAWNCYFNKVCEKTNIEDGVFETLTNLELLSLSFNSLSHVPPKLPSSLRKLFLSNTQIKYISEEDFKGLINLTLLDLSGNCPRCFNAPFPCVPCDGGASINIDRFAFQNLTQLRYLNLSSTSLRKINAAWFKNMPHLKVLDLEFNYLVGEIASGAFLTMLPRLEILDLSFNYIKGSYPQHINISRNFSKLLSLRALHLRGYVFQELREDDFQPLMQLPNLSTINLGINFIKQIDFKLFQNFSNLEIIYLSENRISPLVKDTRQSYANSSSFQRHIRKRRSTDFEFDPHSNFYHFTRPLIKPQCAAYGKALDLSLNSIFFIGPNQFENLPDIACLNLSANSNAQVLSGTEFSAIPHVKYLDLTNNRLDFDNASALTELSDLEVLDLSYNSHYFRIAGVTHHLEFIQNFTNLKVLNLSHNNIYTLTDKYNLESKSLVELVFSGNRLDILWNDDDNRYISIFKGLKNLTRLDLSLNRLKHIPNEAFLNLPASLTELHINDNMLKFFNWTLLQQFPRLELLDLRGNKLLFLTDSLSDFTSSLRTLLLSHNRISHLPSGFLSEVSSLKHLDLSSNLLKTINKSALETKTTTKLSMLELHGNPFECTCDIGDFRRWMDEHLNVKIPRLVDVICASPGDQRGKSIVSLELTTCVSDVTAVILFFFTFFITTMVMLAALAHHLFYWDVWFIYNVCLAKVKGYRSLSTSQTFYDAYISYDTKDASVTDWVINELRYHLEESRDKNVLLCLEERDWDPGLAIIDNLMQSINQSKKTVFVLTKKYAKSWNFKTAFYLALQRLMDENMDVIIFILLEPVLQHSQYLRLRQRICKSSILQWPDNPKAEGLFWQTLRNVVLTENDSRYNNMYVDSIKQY
Method in brief: as §1

human TLR9 = biological target: T3, human TLR9 (Homo sapiens, UniProt Q9NR96); assay: TLR9 inhibition reporter assay (HEK-Blue SEAP reporter, ODN2006 stimulation); details: HEK-Blue cells overexpressing human TLR9, SEAP reporter, ODN2006 5 nM, 22 hour incubation
T3 construct: host or cells: HEK-Blue cells
T3 sequence (Q9NR96 26-1032): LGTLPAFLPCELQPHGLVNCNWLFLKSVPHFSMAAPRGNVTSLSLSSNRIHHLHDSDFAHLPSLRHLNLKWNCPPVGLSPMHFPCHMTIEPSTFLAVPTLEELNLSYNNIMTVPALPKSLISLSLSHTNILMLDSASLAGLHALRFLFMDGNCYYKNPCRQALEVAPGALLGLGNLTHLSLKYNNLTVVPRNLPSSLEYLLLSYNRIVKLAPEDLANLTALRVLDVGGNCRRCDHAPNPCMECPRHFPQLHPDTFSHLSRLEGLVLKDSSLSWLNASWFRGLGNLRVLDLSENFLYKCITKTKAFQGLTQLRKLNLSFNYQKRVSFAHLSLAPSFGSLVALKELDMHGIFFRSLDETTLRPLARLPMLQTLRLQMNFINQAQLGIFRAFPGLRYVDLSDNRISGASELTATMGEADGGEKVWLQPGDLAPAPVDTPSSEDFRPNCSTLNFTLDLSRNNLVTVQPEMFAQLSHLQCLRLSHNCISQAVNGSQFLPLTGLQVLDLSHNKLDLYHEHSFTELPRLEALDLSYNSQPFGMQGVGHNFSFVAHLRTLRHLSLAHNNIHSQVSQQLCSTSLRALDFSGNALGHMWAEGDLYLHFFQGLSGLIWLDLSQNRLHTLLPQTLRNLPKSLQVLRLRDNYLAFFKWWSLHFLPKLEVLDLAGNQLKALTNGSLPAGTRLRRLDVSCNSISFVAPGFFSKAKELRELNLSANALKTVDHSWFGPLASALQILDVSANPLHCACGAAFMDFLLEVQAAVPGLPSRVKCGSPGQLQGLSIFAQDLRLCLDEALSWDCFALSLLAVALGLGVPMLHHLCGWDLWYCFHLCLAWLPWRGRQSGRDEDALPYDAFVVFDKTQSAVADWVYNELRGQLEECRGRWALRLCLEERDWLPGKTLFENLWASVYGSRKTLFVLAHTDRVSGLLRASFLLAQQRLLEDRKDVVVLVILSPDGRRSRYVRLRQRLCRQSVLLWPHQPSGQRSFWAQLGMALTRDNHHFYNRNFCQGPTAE
Method in brief: as §1

| SMILES | IC50 (human TLR7) [nM] | IC50 (human TLR8) [nM] | IC50 (human TLR9) [µM] |
| --- | --- | --- | --- |
| COCCCN1CCC(c2ccc3[nH]c(-c4cn(C)c(=O)c(Cl)c4C)c(C(C)C)c3c2)CC1 [Example 99, 3-chloro-5-(3-isopropyl-5-(1-(3-methoxypropyl)piperidin-4-yl)-1H-indol-2-yl)-1,4-dimethylpyridin-2(1H)-one] | 7.1 | 10.3 | 4.98 |
| CC(C)c1c(-c2cc(-c3cncnc3)c(=O)n(C)c2)[nH]c2ccc(C3CCN(CC4CCOCC4)CC3)cc12 [Example 100, 5-(3-isopropyl-5-(1-((tetrahydro-2H-pyran-4-yl)methyl)piperidin-4-yl)-1H-indol-2-yl)-1-methyl-3-(pyrimidin-5-yl)pyridin-2(1H)-one] | 21.5 | 2.3 | 3.06 |
| COCCOCCN1CCC(c2ccc3[nH]c(-c4cn(C)c(=O)c(Cl)c4C)c(C(C)C)c3c2)CC1 [Example 101, 3-chloro-5-(3-isopropyl-5-(1-(2-(2-methoxyethoxy)ethyl)piperidin-4-yl)-1H-indol-2-yl)-1,4-dimethylpyridin-2(1H)-one] | 12.8 | 9.3 | 4.88 |
| Cc1c(-c2[nH]c3ccc(C4CCN(CCC(F)(F)F)CC4)cc3c2C(C)C)cn(C)c(=O)c1Cl [Example 102, 3-chloro-5-(3-isopropyl-5-(1-(3,3,3-trifluoropropyl)piperidin-4-yl)-1H-indol-2-yl)-1,4-dimethylpyridin-2(1H)-one] | 33.2 | 32.4 | ≥ 50 |
| COCCN1CCC(c2ccc3[nH]c(-c4cc(-c5cncnc5)c(=O)n(C)c4)c(C(C)C)c3c2)CC1 [Example 103, 5-(3-isopropyl-5-(1-(2-methoxyethyl)piperidin-4-yl)-1H-indol-2-yl)-1-methyl-3-(pyrimidin-5-yl)pyridin-2(1H)-one] | 9.6 | 1.3 | 2.08 |
| CC(C)c1c(-c2cc(-c3cncnc3)c(=O)n(C)c2)[nH]c2ccc(C3CCN(CCCC(F)(F)F)CC3)cc12 [Example 104, 5-(3-isopropyl-5-(1-(4,4,4-trifluorobutyl)piperidin-4-yl)-1H-indol-2-yl)-1-methyl-3-(pyrimidin-5-yl)pyridin-2(1H)-one] | 13.1 | 3.5 | 2.7 |
| Cc1c(-c2[nH]c3ccc(C4CCN(CCCC(F)(F)F)CC4)cc3c2C(C)C)cn(C)c(=O)c1Cl [Example 105, 3-chloro-5-(3-isopropyl-5-(1-(4,4,4-trifluorobutyl)piperidin-4-yl)-1H-indol-2-yl)-1,4-dimethylpyridin-2(1H)-one] | 5.1 | 10.7 | 5.52 |
| Cc1c(-c2[nH]c3ccc(C4CCN(CC(C)C)CC4)cc3c2C(C)C)cn(C)c(=O)c1Cl [Example 106, 3-chloro-5-(5-(1-isobutylpiperidin-4-yl)-3-isopropyl-1H-indol-2-yl)-1,4-dimethylpyridin-2(1H)-one] | 6.2 | 5.5 | 1.25 |
| Cc1c(-c2[nH]c3ccc(C4CCN(CCS(C)(=O)=O)CC4)cc3c2C(C)C)cn(C)c(=O)c1Cl [Example 107, 3-chloro-5-(3-isopropyl-5-(1-(2-(methylsulfonyl)ethyl)piperidin-4-yl)-1H-indol-2-yl)-1,4-dimethylpyridin-2(1H)-one] | 6.6 | 4.4 | 13.4 |
| CC(C)c1c(-c2cc(-c3cncnc3)c(=O)n(C)c2)[nH]c2ccc(C3CCN(CCS(C)(=O)=O)CC3)cc12 [Example 108, 5-(3-isopropyl-5-(1-(2-(methylsulfonyl)ethyl)piperidin-4-yl)-1H-indol-2-yl)-1-methyl-3-(pyrimidin-5-yl) pyridin-2(1H)-one] | 32.8 | 2 | 7.54 |
| COCCn1cc(-c2[nH]c3ccc(C4CCN(CC(C)C)CC4)cc3c2C(C)C)cc(C)c1=O [Example 109, 5-(5-(1-isobutylpiperidin-4-yl)-3-isopropyl-1H-indol-2-yl)-1-(2-methoxyethyl)-3-methylpyridin-2(1H)-one] | 13 | 9.7 | 5.31 |
| Cc1cc(-c2[nH]c3ccc(C4CCN(CCCC(F)(F)F)CC4)cc3c2C(C)C)cn(CC(C)C)c1=O [Example 110, 1-isobutyl-5-(3-isopropyl-5-(1-(4,4,4-trifluorobutyl)piperidin-4-yl)-1H-indol-2-yl)-3-methylpyridin-2(1H)-one] | 56.1 | 163 | 5.26 |
| Cc1cc(-c2[nH]c3ccc(C4CCN(CCCC(F)(F)F)CC4)cc3c2C(C)C)cn(Cc2ccccc2)c1=O [Example 111, 1-benzyl-5-(3-isopropyl-5-(1-(4,4,4-trifluorobutyl)piperidin-4-yl)-1H-indol-2-yl)-3-methylpyridin-2(1H)-one] | 48 | 157 | 3.06 |
